Assay [1] deals with METTL3/14 (Homo sapiens (Human), UniProt Q86U44).
In assay [2] the test system is Caov-3 cells. Briefly: Caov3 CTG proliferation assay. The assay is classed as cell-based. As to conditions: Homo sapiens. The method, then: CTG Assay (Caov3 Cell Line)
Upon treatment, Coav-3 cells were incubated for 10 min at RT with the CellTiter-Glo reagent (G7571, Promega). Measurement of the luminescence signal was performed on a microplate reader (Ensight, PerkinElmer).
Caov3 CTG Assay—Proliferation Assay

[3] abbreviates: Caov-3, treated for 120 hours, CellTiter-Glo luminescence, read-out: Caov3 cells IC50.
The mark [4] stands for this setting: Caov-3, 120 h, read-out: Caov3 cells IC50 nM.

This note sets out measurements from patent US11725010B2, “Polyheterocyclic compounds as METTL3 inhibitors” (Storm Therapeutics Limited, priority 2019, dated 2023).

Structures are written as SMILES. Like-named read-outs stand apart in the source and are kept apart here. Where only a bound is given, the exact number is not on record here.

METTL3/14, sequence (Q86U44 whole entry): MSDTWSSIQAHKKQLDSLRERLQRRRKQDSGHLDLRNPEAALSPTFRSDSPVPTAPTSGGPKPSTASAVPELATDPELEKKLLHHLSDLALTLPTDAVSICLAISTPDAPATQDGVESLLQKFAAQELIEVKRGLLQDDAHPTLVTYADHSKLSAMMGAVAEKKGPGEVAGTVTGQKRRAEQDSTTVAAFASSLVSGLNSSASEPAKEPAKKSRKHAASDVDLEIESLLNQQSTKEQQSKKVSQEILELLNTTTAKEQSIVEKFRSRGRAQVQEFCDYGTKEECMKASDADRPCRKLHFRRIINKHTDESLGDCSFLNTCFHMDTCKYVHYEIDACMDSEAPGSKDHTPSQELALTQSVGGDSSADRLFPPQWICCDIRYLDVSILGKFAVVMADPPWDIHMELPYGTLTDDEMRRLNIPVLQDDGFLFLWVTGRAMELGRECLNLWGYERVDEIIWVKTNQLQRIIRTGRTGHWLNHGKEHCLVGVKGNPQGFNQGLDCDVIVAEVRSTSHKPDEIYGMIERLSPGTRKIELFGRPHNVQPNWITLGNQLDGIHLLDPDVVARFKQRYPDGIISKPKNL
METTL3/14, sequence (Q9HCE5 whole entry partner): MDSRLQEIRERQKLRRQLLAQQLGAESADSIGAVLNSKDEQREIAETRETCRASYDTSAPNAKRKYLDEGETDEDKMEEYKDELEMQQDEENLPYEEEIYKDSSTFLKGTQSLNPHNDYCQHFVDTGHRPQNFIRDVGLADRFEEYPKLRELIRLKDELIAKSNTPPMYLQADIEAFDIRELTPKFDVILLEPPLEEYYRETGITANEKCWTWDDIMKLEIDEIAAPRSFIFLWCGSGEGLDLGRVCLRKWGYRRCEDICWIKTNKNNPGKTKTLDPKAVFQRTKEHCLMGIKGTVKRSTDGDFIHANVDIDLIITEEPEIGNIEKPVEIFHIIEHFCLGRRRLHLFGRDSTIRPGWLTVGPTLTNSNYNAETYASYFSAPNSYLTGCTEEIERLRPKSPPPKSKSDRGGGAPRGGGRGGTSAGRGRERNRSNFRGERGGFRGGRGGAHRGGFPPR

With `O=C(NCc1ccc2cc(CNCC3CC(F)(F)C3)[nH]c2c1)c1cc(=O)n2ccccc2n1` [Compound 3, N-[[2-[[(3,3-difluorocyclobutyl)methylamino]methyl]-1H-indol-6-yl]methyl]-4-oxo-pyrido[1,2-a]pyrimidine-2-carboxamide], the IC50 (usually the concentration at which inhibition is half-maximal) in assay [1] was determined as 6.1 nM.

In assay [1], `O=C(NCc1ccc2cc(CNCC3(O)CCC3)[nH]c2c1)c1cc(=O)n2ccccc2n1` [Compound 4, N-[[2-[[(1-hydroxycyclobutyl)methylamino]methyl]-1H-indol-6-yl]methyl]-4-oxo-pyrido[1,2-a]pyrimidine-2-carboxamide] gave a concentration for half-maximal inhibition (IC50) of 6.1 nM. For `O=C(NCc1ccc2cc(CNC34CC5CC(CC(C5)C3)C4)[nH]c2c1)c1cc(=O)n2ccccc2n1` [Compound 11, N-[[2-[(1-adamantylamino)methyl]-1H-indol-6-yl]methyl]-4-oxo-pyrido[1,2-a]pyrimidine-2-carboxamide], the IC50 turned out to be 6.1 nM in assay [1] and 607 nM in assay [2] (setting [3]). The corresponding values for `O=C(NCc1ccc2cc(CNCC3(O)CCCC3)[nH]c2c1)c1cc(=O)n2ccccc2n1` [Compound 15, N-[[2-[[(1-hydroxycyclopentyl)methylamino]methyl]-1H-indol-6-yl]methyl]-4-oxo-pyrido[1,2-a]pyrimidine-2-carboxamide] are 6.1 nM and 658 nM. As to `O=C(NCc1ccc2cc(CN3CC4CCC3CC4)[nH]c2c1)c1cc(=O)n2ccccc2n1` [Compound 21, N-[[2-(2-azabicyclo[2.2.2]octan-2-ylmethyl)-1H-indol-6-yl]methyl]-4-oxo-pyrido[1,2-a]pyrimidine-2-carboxamide], the IC50 in assay [2] (setting [3]) stood at 746 nM. Still for that read-out and setting: next, `O=C(NCc1ccc2cc(CNCC3(O)CCCCC3)[nH]c2c1)c1cc(=O)n2ccccc2n1` [Compound 25, N-[[2-[[(1-hydroxycyclohexyl)methylamino]methyl]-1H-indol-6-yl]methyl]-4-oxo-pyrido[1,2-a]pyrimidine-2-carboxamide]: 732 nM.

With `O=C(NCc1ccc2cc(CNC3CCCC3)[nH]c2c1)c1cc(=O)n2ccccc2n1` [Compound 26, N-[[2-[(cyclopentylamino)methyl]-1H-indol-6-yl]methyl]-4-oxo-pyrido[1,2-a]pyrimidine-2-carboxamide], the IC50 in assay [1] amounted to 6.1 nM; in assay [2] (setting [3]) it was 274 nM. The corresponding values for `O=C(NCc1ccc2cc(CNCC3CCCC3)[nH]c2c1)c1cc(=O)n2ccccc2n1` [Compound 27, N-[[2-[(cyclopentylmethylamino)methyl]-1H-indol-6-yl]methyl]-4-oxo-pyrido[1,2-a]pyrimidine-2-carboxamide] are 6.1 nM and 420 nM.

Compound `O=C(NCc1ccc2cc(CNC3CCCCC3)[nH]c2c1)c1cc(=O)n2ccccc2n1` [Compound 30, N-[[2-[(cyclohexylamino)methyl]-1H-indol-6-yl]methyl]-4-oxo-pyrido[1,2-a]pyrimidine-2-carboxamide] displayed an IC50 in assay [1] of 6.1 nM. For the compound `CC(C)(C)CNCc1cc2ccc(CNC(=O)c3cc(=O)n4ccccc4n3)cc2[nH]1` [Compound 34, N-[[2-[(2,2-dimethylpropylamino)methyl]-1H-indol-6-yl]methyl]-4-oxo-pyrido[1,2-a]pyrimidine-2-carboxamide], the figures for the IC50 in assay [1] and in assay [2] (setting [3]) were 6.1 nM and 988 nM, respectively. For `O=C(NCc1ccc2cc(CN[C@H]3CCC[C@@H]3O)[nH]c2c1)c1cc(=O)n2ccccc2n1` [Compound 36, N-{[2-({[(1S,2S)-2-hydroxycyclopentyl]amino}methyl)-1H-indol-6-yl]methyl}-4-oxo-4H-pyrido[1,2-a]pyrimidine-2-carboxamide], the IC50 in assay [1] came to 6.1 nM; in assay [2] (setting [4]) it was 973 nM. As for `O[C@@H]1CCC[C@@H]1NCc1cc2ccc(Cn3cc(-c4cccc5[nH]ncc45)nn3)cc2[nH]1` [Compound 54, (1R,2S)-2-[[6-[[4-(1H-indazol-4-yl)triazol-1-yl]methyl]-1H-indol-2-yl]methylamino]cyclopentanol], the concentration for half-maximal inhibition (IC50) in assay [2] (setting [3]) was 837 nM. In the case of `c1cc(-c2cn(Cc3ccc4cc(CNC5CCCC5)[nH]c4c3)nn2)c2cn[nH]c2c1` [Compound 55, N-[[6-[[4-(1H-indazol-4-yl)triazol-1-yl]methyl]-1H-indol-2-yl]methyl]cyclopentanamine], the IC50 in assay [1] is 6.1 nM; in assay [2] (setting [3]), 764 nM.

With `OC1(CNCc2cc3ccc(Cn4cc(-c5cccc6[nH]ncc56)nn4)cc3[nH]2)CCC1` [Compound 57, 1-[[[6-[[4-(1H-indazol-4-yl)triazol-1-yl]methyl]-1H-indol-2-yl]methylamino]methyl]cyclobutanol], the IC50 in assay [1] was found to be 6.1 nM; in assay [2] (setting [3]), 1060 nM.

Turning to `O=C(NCc1cnc2cc(CNCC34CC(F)(C3)C4)[nH]c2c1)c1cc(=O)n2ccccc2n1` [Compound 127, N-[(2-{[({3-fluorobicyclo[1.1.1]pentan-1-yl}methyl)amino]methyl}-1H-pyrrolo[3,2-b]pyridin-6-yl)methyl]-4-oxo-4H-pyrido[1,2-a]pyrimidine-2-carboxamide], the IC50 in assay [1] came out at 6.1 nM; in assay [2] (setting [3]), 624 nM. For the compound `CC1(C)CCN(Cc2cc3ccc(CNC(=O)c4cc(=O)n5ccccc5n4)cc3[nH]2)CC1` [Example 1, N-({2-[(4,4-dimethylpiperidin-1-yl)methyl]-1H-indol-6-yl}methyl)-4-oxo-4H-pyrido[1,2-a]pyrimidine-2-carboxamide], the IC50 in assay [2] (setting [3]) was determined as 260 nM. With `O=C(NCc1cnc2cc(CNCC3CCC3)[nH]c2c1)c1cc(=O)n2ccccc2n1` [Example 49, N-[[2-[(cyclobutylmethylamino)methyl]-1H-pyrrolo[3,2-b]pyridin-6-yl]methyl]-4-oxo-pyrido[1,2-a]pyrimidine-2-carboxamide], the concentration for half-maximal inhibition (IC50) in assay [2] (setting [4]) was found to be 1060 nM. As to `c1cc(-c2cn(Cc3ccc4cc(CNCC5CCC5)[nH]c4c3)cn2)c2cn[nH]c2c1` [Example 64, N-(cyclobutylmethyl)-1-[6-[[4-(1H-indazol-4-yl)imidazol-1-yl]methyl]-1H-indol-2-yl]methanamine], in assay [2] (setting [3]), the IC50 was found to be 922 nM. With `c1cc(-c2nsc(Cc3ccc4cc(CNCC5CCC5)[nH]c4c3)n2)c2cn[nH]c2c1` [Example 65], it took 16100 nM to reach half-maximal inhibition in assay [1] (IC50). Same read-out and setting: next, `c1cc2cc(-c3cn(Cc4ccc5cc(CNCC6CCC6)[nH]c5c4)cn3)cnc2[nH]1` [Example 134, (cyclobutylmethyl)({6-[(4-{1H-pyrrolo[2,3-b]pyridin-5-yl}-1H-imidazol-1-yl)methyl]-1H-indol-2-yl}methyl)amine]: 6.1 nM. Turning to `c1cc(-c2cn(Cc3ccc4cc(CNCC5CCC5)[nH]c4c3)nn2)c2cncn2c1` [Example 135, (cyclobutylmethyl)({6-[(4-{imidazo[1,5-a]pyridin-8-yl}-1H-1,2,3-triazol-1-yl)methyl]-1H-indol-2-yl}methyl)amine], the IC50 in assay [2] (setting [3]) was 269 nM. In assay [1], `c1cc2cc(-c3cn(Cc4ccc5cc(CNCC6CCC6)[nH]c5c4)nn3)cnc2[nH]1` [Example 138, (cyclobutylmethyl)({6-[(4-{1H-pyrrolo[2,3-b]pyridin-5-yl}-1H-1,2,3-triazol-1-yl)methyl]-1H-indol-2-yl}methyl)amine] gave an IC50 of 6.1 nM.

Turning to `COc1cnc(C#N)c(-c2cn(Cc3ccc4cc(CNCC56CC(C5)C6)[nH]c4c3)nn2)c1` [Example 148, 3-[1-({2-[({(Bicyclo [1.1.1]pent-1-yl)methyl}amino)methyl]-1H-indol-6-yl}methyl)-1H-1,2,3-triazol-4-yl]-5-methoxy-2-pyridine-carbonitrile], the IC50 in assay [1] was less than 6.1 nM.
